From US10959984B2, “Methods for treating cancer with RORγ inhibitors” (THE REGENTS OF THE UNIVERSITY OF CALIFORNIA, priority 2015, dated 2021)
“Also recorded” adds a separate entry of the source.

What was measured:
AR-negative PCa cells = assay: Prostate cancer cell growth and survival, AR-negative cells; type: cell-based, human
Procedure: (§1) For cell viability, cells were seeded in 96-well plates at 1500-2500 cells per well (optimum density for growth) in a total volume of 100 μl media. Serially diluted compounds in […] of media were added to the cells 12 hours later. After 4 days of incubation, Cell-Titer GLO reagents (Promega) were added and luminescence was measured on GLOMAX microplate luminometer (Promega), according to the manufacturer's instructions. All experimental points were set up as sextuplicate as biological replication and the entire experiments were repeated three times. The data are presented as percentage of viable cells with vehicle treated cells set as 100. The estimated in vitro IC50 values were calculated using GraphPad Prism 6 software.
(§2) For apoptosis, Terminal deoxynucleotidyl transferase-mediated dUTP nick end labeling (TUNEL) was performed by using in situ cell death detection kit (Roche) as previously described^56. The results are expressed as a percentage of apoptotic cell number/total cell number. Caspase-3/7 activity was measured using a luminescent caspase-Glo 3/7 assay kit (Promega Corporation, Madison, USA) following the manufacturer's instructions. For cell growth, cells were seeded in 6-well plates at 2×10^5 per well and treated as indicated. Total viable cell numbers were counted using a Coulter cell counter. For colony formation, 800 cells were seeded in a well of 6-well plates and cultured for 14 days with the medium changed every 3 days. When the cell clone grew visible, the medium was removed and the cells were fixed with […] formalin for 10 minutes. Then the plates were washed with PBS for two times and the cell colonies were stained with 0.2% crystal violet (in 10% formalin) for 15 minutes. The numbers of cell colonies were counted after washed 5 times by PBS. The above assays were performed in triplicates and the entire experiments were repeated three times.

AR-positive PCa cells = assay: Prostate cancer cell growth and survival (cell viability / cell growth); type: cell-based, human; conditions: for inhibition of AR-positive PCa cell growth and survival: different cell line models; for growth-inhibitory effect in prostate cancer cells: cell viability, 4 d (FIGS. 7B, 7C)
Procedure: as §1, §2

breast cancer cells = assay: CellTiter-GLO viability, breast cancer cells; type: cell-based, human; conditions: for growth and survival of breast cancer cells: cells having different major molecular features, 4 days
Procedure: as §1
(§3) Using a CellTiter-GLO assay, the viability of cells of different cancer types was measured after treatment with different concentrations of RORγ small molecule inhibitors for 4 days.

[1] = system: OVCAR420, T24, ECC1, HepG2, Hep3B, T98G, SUDHL4, SUDHL6, HCT116 and docetaxel-resistant C4-2B cells; assay: CellTiter-GLO viability, cells of other cancer types; type: cell-based, human; conditions: ovarian OVCAR420, bladder T24, endometrial ECC1, liver HepG2 and Hep3B, glioblastoma T98G, DLBCL SUDHL4 and SUDHL6, colon HCT116, docetaxel-resistant C4-2B; 4 days
Procedure: as §1, §3

MCF-7-TamR cell line = assay: Growth of tamoxifen-resistant breast cancer cells; type: cell-based, human
Procedure: as §3

[2] = system: TNBC cells including MDA-MB468, MDA-MB231, BT20, SUM149, and HCC1937; assay: CellTiter-GLO viability, triple-negative breast cancer cells; type: cell-based; conditions: Homo sapiens, 96 h, treated for 4 days
Procedure: as §1, §3

[3] = system: HER2-positive cells, such as SKBR3 and HCC1954; assay: CellTiter-GLO viability, HER2-positive breast cancer cells; type: cell-based, human; conditions: SKBR3 and HCC1954, 4 days
Procedure: as §1, §3

[4] = system: ER-positive cells, such as MCF-7 and T47D; assay: CellTiter-GLO viability, ER-positive breast cancer cells; type: cell-based; conditions: Homo sapiens, 96 h; ER-positive cells MCF-7 and T47D, treated for 4 days
Procedure: as §1, §3

lung cancer cells = assay: CellTiter-GLO viability, lung cancer cells; type: cell-based, human; conditions: NSCLC cells: KRAS mutant (A427, Calu1, A549, H23, H358), BRAF mutant (H1666), EGFR mutant (HCC827, PC-9), Erlotinib-resistant (A427, H1975); 4 days
Procedure: as §1, §3

AR = assay: ARE reporter gene assay (5xARE-tk-luc) in 22Rv1 cells; type: cell-based, human
Procedure: Transient transfection and reporter gene assays were performed as previously described^49 with the following modifications. ARE reporter gene assays were performed by transfecting 22Rv1 cells with 5×ARE-tk-luc, pcDNA3.1-hAR and pCMV-β-gal for normalization. For transfection with constructs omitted for specific gene expression, corresponding empty vectors were used to ensure equal amount of total DNA used. Briefly, 22Rv1 cells seeded in 96-well plates in hormone-deprived medium supplemented with 10% cds-FBS (Hyclone) were transfected with lipofectamine 2000 (Life technology, Carlsbad, Calif., USA) and the indicated plasmid DNA. Cells were then treated at 12 hours after transfection with 3 nm R1881, indicated concentrations of RORγ antagonists or ENZ for another 24 hours before harvested for β-gal and luciferase assays. For RORE reporter gene assays, 4×AR-RORE-tk-luc was constructed by inserting four copies of the newly identified AR-RORE TTCTGGGTCA (SEQ ID NO: 1) into tk-luciferase reporter vector. AR-RORE mutant form (AR-RORE mut) contains sequences mutated from TTCTGGGTCA (SEQ ID NO: 1) to TTCTGAACGA (SEQ ID NO: 2). […] The luciferase and β-galactosidase were then analyzed with a Luciferase Assay Substrate (Promega) and Luminescent β-galactosidase Detection Kit II (Clontech). […]

22Rv1 xenografts = assay: 22Rv1 xenograft tumor growth; type: in vivo, mice
Procedure: Four-week-old male SCID C.B17 mice (for C4-2B and VCaP) or BALB/c nu/nu athymic mice (for 22Rv11 and PC-3) were purchased from Harlan Inc. For establishing tumors, 2×10^6 cells were suspended in total of 100 μL PBS/Matrigel (1:1) and implanted subcutaneously into the dorsal flank on both sides of the mice. Animal group size of six or more was estimated to have a high statistic power, based on power calculation (http://www.biomath.info/power/) and previous studies involving the same xenograft models^34,68. When the tumor volume was approximately 80 mm^3, the mice were randomized and then treated intraperitoneally (i.p.) with 100 μl of either vehicle or RORγ antagonists SR2211, XY011/8k (in a formulation of 15% Cremophor EL, Calbiochem, 82.5% PBS, and 2.5% DMSO) for five times per week. Tumor growth was monitored by calipers with volume calculated using the equation: (π/6 (length×width2)). Body weight during the course of the study was also monitored. At the end of the studies mice were killed and tumors were dissected and weighed. Additionally, prostate, seminal vesicle, testis, kidney, heart, lung, liver, epididymal fat pad and spleen were harvested and weighed. To assess the effect of combining RORγ antagonists and ENZ on the growth of castrated-resistant VCaP xenografts (CRPC-VCaP), first, SCID C.B17 mice were injected with VCaP cells as above to establish the tumors. Then, mice bearing tumors of approximately 180 mm^3 were surgically castrated. They were then observed for tumor regression. Once tumors grew back to the pre-castration size, mice were randomized and treated with vehicle, 5 mg kg^−1 SR2211, 10 mg […] ENZ or a combination of 5 mg kg^−1 SR2211 and 10 mg kg^−1 ENZ. ENZ was given by oral gavage as previously described^68 and SR2211 was administered i.p as above. Mice were excluded from the study if bearing no tumor or tumor with size twice larger or smaller than the mean, at the time of randomization.

AR and AR-V7 = assay: AR and AR variant expression (immunoblotting, qRT-PCR); type: cell-based, human
Procedure: Total RNA was isolated from cells in 6-well or 10-cm plates or from xenograft tumors, and the cDNA was prepared, amplified and measured in the presence of SYBR as previously^49. Briefly, the fluorescent values were collected and a melting curve analysis was performed. Fold difference was calculated as described previously^49. The experiments were performed at least three times with data presented as mean values±s.d. Cell lysates were analyzed by immunoblotting with antibodies specifically recognizing RORγ, AR, AR-V7 and the indicated proteins. The PCR primers and all the antibodies used in this study are described in the Tables 3 and 4.

CCN1C(=O)c2cccc3c(S(=O)(=O)Nc4ccc5ccncc5c4)ccc1c23 [6f, 1-Ethyl-N-(isoquinolin-7′-yl)-2-oxo-1,2-dihydrobenzo[cd]indole-6-sulfonamide]
inhibition of cell growth and survival in AR-negative cells (AR-negative PCa cells): not in the AR-negative cells | inhibition of AR-positive PCa cell growth and survival (AR-positive PCa cells): potent inhibition of AR-positive PCa cell growth and survival

CCN1C(=O)c2cccc3c(S(=O)(=O)Nc4ccc(/N=N/c5ccccc5)cc4)ccc1c23 [7k, (E)-1-ethyl-2-oxo-N-(4′-(phenyldiazenyl)phenyl)-1,2-dihydrobenzo[cd]indole-6-sulfonamide]
inhibition of cell growth and survival in AR-negative cells (AR-negative PCa cells): not in the AR-negative cells | inhibition of AR-positive PCa cell growth and survival (AR-positive PCa cells): potent inhibition of AR-positive PCa cell growth and survival

CC(=O)N1CCN(c2ccc(CN3[C@@H](C)CC[C@H](c4ccccc4)S3(=O)=O)c(F)c2)CC1 [GNE3500]
growth and survival of different breast cancer cells (breast cancer cells; HER2-positive HCC1954, TNBC MDA-MB468 and MDA-MB231, radiation-resistant MCF-7-C6): significant inhibition

NS(=O)(=O)c1ccc(CC(=O)Nc2cc(Cl)c(-c3ccccc3OC(F)(F)F)c(Cl)c2)cc1 [GSK9b, N-(2,6-dichloro-2′-trifluoromethoxy)-[1,1′-biphenyl]-4-yl-2-(4-sulfamoylphenyl)acetamide]
growth and survival of breast cancer cells (breast cancer cells): strongly inhibited the growth and survival of breast cancer cells; also recorded: slightly less effective than GSK805 | growth and survival of cancer cells of other types [1]: significant inhibition of the growth and survival

CCS(=O)(=O)c1ccc(CC(=O)Nc2cc(Cl)c(-c3ccccc3OC(F)(F)F)c(Cl)c2)cc1 [GSK805, N-(3,5-Dichloro-4-(2-(trifluoromethoxy)phenyl)phenyl)-2-(4-ethylsulfonylphenyl)acetamide]
sensitization of tamoxifen-resistant breast cancer cells to tamoxifen (MCF-7-TamR cell line; MCF-7 TamR cells, in combination with tamoxifen): able to sensitize tamoxifen-resistant breast cancer cells to tamoxifen; also recorded: sensitized MCF-7 TamR cells to tamoxifen | IC50 [2]: 1 to 10 µM | growth and survival of breast cancer cells (breast cancer cells): strongly inhibited the growth and survival of breast cancer cells | inhibition of HER2-positive cells [3]: relatively strong inhibition | IC50 [4]: > 10 µM | growth and survival of cancer cells of other types [1]: significant inhibition of the growth and survival | growth and survival of lung cancer cells (lung cancer cells): strongly inhibited the growth and survival of lung cancer cells

C[C@]1(O)CC[C@H]2[C@@H]3CCC4=CC(=O)CCC4=C3C=C[C@@]21C [R1881]
response of multimerized ARE-driven reporter (AR): activated

CC(=O)N1CCN(Cc2ccc(-c3ccc(C(O)(C(F)(F)F)C(F)(F)F)cc3)cc2)CC1.Cl [SR1555, 1-(4-((4′-(1,1,1,3,3,3-hexafluoro-2-hydroxypropan-2-yl)-[1,1′-biphenyl]-4-yl)methyl)piperazin-1-yl)ethanone, monohydrochloride]
inhibition of cell growth and survival in AR-negative cells (AR-negative PCa cells): not in the AR-negative cells | growth-inhibitory effect in prostate cancer cells (AR-positive PCa cells): significant inhibitory effects with slightly lower potencies | inhibition of AR-positive PCa cell growth and survival (AR-positive PCa cells): potent inhibition of AR-positive PCa cell growth and survival

CCN1C(=O)c2cccc3c(S(=O)(=O)Nc4ccc(OC)c(OC)c4)ccc1c23 [XY011, N-(3′,4′-dimethoxyphenyl)-1-ethyl-2-oxo-1,2-dihydrobenzo[cd]indole-6-sulfonamide]
inhibition of cell growth and survival in AR-negative cells (AR-negative PCa cells): not in the AR-negative cells | tumor growth inhibition (22Rv1 xenografts; XY011 20 mg/kg, i.p., 5 times a week (FIG. 23B)): Strong tumor growth inhibition | growth of xenograft tumors (22Rv1 xenografts; nude mice, SR2211 5 mg/kg i.p., 8k/E11 10 and 20 mg/kg i.p., five times per week (FIG. 3A)): strongly inhibited growth of xenograft tumors | expression of AR and AR-V7 (AR and AR-V7; C4-2B and VCaP cells, 72 h): potently inhibited the expression of AR and AR-V7 in a dose-dependent manner | inhibition of AR-positive PCa cell growth and survival (AR-positive PCa cells): potent inhibition of AR-positive PCa cell growth and survival

C[C@]12CC[C@H](O)C[C@H]1CC[C@@H]1[C@@H]2CC[C@]2(C)[C@@H](c3ccc(=O)oc3)CC[C@]12O [bufalin]
AR expression (AR and AR-V7; C4-2B cells treated with bufalin): dose-dependent inhibition of AR expression

CC/C(=C(\c1ccccc1)c1ccc(OCCN(C)C)cc1)c1ccccc1 [tamoxifen]
growth inhibitory effect of tamoxifen alone (MCF-7-TamR cell line; MCF-7-TamR, 1 μM of 4(OH)-tamoxifen): did not show any inhibitory effect | growth inhibitory effect of tamoxifen in combination with RORγ inhibitors (MCF-7-TamR cell line; tamoxifen-resistant breast cancer cells, combined with SR2211 or GSK805): synergistic growth inhibitory effect

SR3335
growth-inhibitory effect in prostate cancer cells (AR-positive PCa cells): did not display any significant effect | inhibition of AR-positive PCa cell growth and survival (AR-positive PCa cells): did not show any significant growth inhibition
